Results reported in US20160271153A1, “Novel Methods For The Treatment Of Cardiac Arrhythmias” (United States Government as Represented by The Department …, priority 2013, published 2016).
Positions count from the first letter of the chain named. Entries after “also recorded” stand apart in the source; their conditions may differ.

Legend:
C133S Cav1 = biological target: T1, C133S Cav1 (Mus musculus, UniProt P49817, C133S); assay: Biotin-switch assay for Cav1 S-nitrosation in transfected HEK cells, C133S Cav1; type: cell-based; conditions: SNAP 20 μM, 10 min
T1 construct: A full-length mouse Cav1 cDNA clone in pCMV-SPORT6 vector; expressed in transfected cells; host or cells: HEK cells
T1 sequence (P49817 1-178 C133S): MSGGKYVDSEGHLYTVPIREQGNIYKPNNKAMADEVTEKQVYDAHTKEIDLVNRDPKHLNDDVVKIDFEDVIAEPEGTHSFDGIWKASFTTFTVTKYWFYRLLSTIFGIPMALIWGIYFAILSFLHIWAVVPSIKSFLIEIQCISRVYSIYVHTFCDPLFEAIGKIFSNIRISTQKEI
Description: (§1) A full-length mouse Cav1 cDNA clone in pCMV-SPORT6 vector was acquired from Thermo Scientific (MGC mouse Cav1 cDNA, clone ID 4484857). The cysteine-to-serine Cav1 mutants (C133S, C143S and C156S) were generated from this WT mouse Cav1 clone using the QuickChange II Site-Directed Mutagenesis kit (Agilent Technologies) according to the manufacturer's instructions.
(§2) Transfection of HEK cells with designated plasmids was conducted using Lipofectamine 2000 according to manufacturer's protocol.
(§3) S-nitrosated Cav1 was detected in cells (isolated ventricular cardiomyocytes from control and ACES/8 mice or HEK cells transfected with WT Cav1 or Cav1 mutants [C156S, C143S or C133S], with or without NO donor, SNAP [20 μM, 10 min], treatment) using the methods described in Jaffrey et al., Protein S-nitrosylation: a physiological signal for neuronal nitric oxide, Nat Cell Biol. 2001, 3:193-197; and Haendeler et al., Redox regulatory and anti-apoptotic functions of thioredoxin depend on S-nitrosylation at cysteine 69, Nat Cell Biol. 2002, 4:743-749. […]
(§4) After removing acetone, protein pellet was resuspended in HENS buffer. […] Cav1 was then immunoprecipitated from each sample using monoclonal Cav1 antibody (BD Biosciences, San Jose, Calif.), where S-nitrosated Cav1 was detected by HRP-conjugated streptavidin following gel electrophoresis and Western blotting. […]

WT mouse Cav1 = biological target: T2, WT mouse Cav1 (Mus musculus, UniProt P49817); assay: Biotin-switch assay for Cav1 S-nitrosation in transfected HEK cells, WT Cav1; type: cell-based; conditions: SNAP 20 μM, 10 min
T2 construct: A full-length mouse Cav1 cDNA clone in pCMV-SPORT6 vector; host or cells: HEK cells
T2 sequence (P49817 1-178): T1 sequence (P49817 1-178 C133S) with S133C
Description: as §2
S-nitrosated Cav1 was detected in cells (isolated ventricular cardiomyocytes from control and ACES/8 mice or HEK cells transfected with WT Cav1 or Cav1 mutants [C156S, C143S or C133S], with or without NO donor, SNAP [20 μM, 10 min], treatment) using the methods described in Jaffrey et al., Protein S-nitrosylation: a physiological signal for neuronal nitric oxide, Nat Cell Biol. 2001, 3:193-197; and Haendeler et al., Redox regulatory and anti-apoptotic functions of thioredoxin depend on S-nitrosylation at cysteine 69, Nat Cell Biol. 2002, 4:743-749.
Cells were lysed with HENS buffer (25 mM HEPES, pH 7.7, 0.1 mM EDTA, 0.01 mM neocuproine and 1% SDS) and centrifuged at 20,000 g for 15 min. The total cell protein was incubated in 20 mM methylmethanthiosulphate (MMTS) for 20 min at 50° C. and vortexed for 5 s every 2 min. Cellular protein was precipitated with acetone.
After removing acetone, protein pellet was resuspended in HENS buffer. […] Cav1 was then immunoprecipitated from each sample using monoclonal Cav1 antibody (BD Biosciences, San Jose, Calif.), where S-nitrosated Cav1 was detected by HRP-conjugated streptavidin following gel electrophoresis and Western blotting. The amount of S-nitrosated Cav1 was quantified and normalized to total Cav1 in each sample

C143S Cav1 = biological target: T3, C143S Cav1 (Mus musculus, UniProt P49817, C143S); assay: Biotin-switch assay for Cav1 S-nitrosation in transfected HEK cells, C143S Cav1; type: cell-based; conditions: SNAP 20 μM, 10 min
T3 construct: A full-length mouse Cav1 cDNA clone in pCMV-SPORT6 vector; expressed in transfected cells; host or cells: HEK cells
T3 sequence (P49817 1-178 C143S): T1 sequence (P49817 1-178 C133S) with S133C, C143S
Description: as §1, §2, §3, §4

Cav1-cSrc binding [1] = assay: Co-immunoprecipitation in HEK cells co-transfected with mouse cSrc and Cav1; type: cell-based; conditions: 10 min
Description: (§5) Immunoprecipitation (IP) of Cav1 was conducted using a magnetic IP kit from Thermo Scientific (Waltham, Mass.). Protein lysates from total LV or isolated LV myocytes (with 1000 μg total protein) from control and ACES/8 mice were incubated with 10 μg of mouse anti-Cav1 monoclonal antibodies overnight at 4° C.
(§6) The immune complex was bound to protein A/G magnetic beads and collected with a magnetic stand. Proteins co-immunoprecipitated with Cav1 were eluted and subjected to gel electrophoresis and Western blotting using the antibodies described above where appropriate. The amount of proteins co-immunoprecipitated with Cav1 was normalized to total Cav1 co-immunoprecipitated in each sample. Similar methods were used to analyze the proteins that co-immunoprecipitated with Cav3 and cSrc using antibodies against Cav3 (mouse monoclonal, BD Biosciences, San Jose, Calif.) or cSrc (rabbit monoclonal, Cell Signaling Technology, Danvers, Mass.).
as §2
To test if increased Cav1 SNO could result in Cav1-cSrc dissociation, human embryonic kidney (HEK) cells transfected with mouse Cav1 and cSrc were treated with 20 μM nitric oxide (NO) donor S-nitroso-N-acetyl-DL-penicillamine (SNAP) or vehicle for 10 min.

C156S Cav1 = biological target: T4, C156S Cav1 (Mus musculus, UniProt P49817, C156S); assay: Biotin-switch assay for Cav1 S-nitrosation in transfected HEK cells, C156S Cav1; type: cell-based; conditions: SNAP 20 μM, 10 min
T4 construct: A full-length mouse Cav1 cDNA clone in pCMV-SPORT6 vector; expressed in transfected cells; host or cells: HEK cells
T4 sequence (P49817 1-178 C156S): T1 sequence (P49817 1-178 C133S) with S133C, C156S
Description: as §1, §2, §3, §4

Cav1-cSrc binding [2] = assay: Co-immunoprecipitation with Cav1 in ACE8/8 LV, cSrc; type: in vivo, mouse; conditions: ACE8/8 mice, MitoTEMPO 0.7 mg/kg/day i.p. for 2 weeks, n=6
Description: as §5, §6

ACE8/8 mice = conditions: cited from earlier work
Cav1-eNOS interaction = assay: Co-immunoprecipitation with Cav1 in ACE8/8 LV, eNOS; type: in vivo, mouse; conditions: ACE8/8 mice, MitoTEMPO 0.7 mg/kg/day i.p. for 2 weeks, n=6
Description: as §5, §6

p-cSrc at Tyr416 = assay: Western blot of LV protein lysates, p-cSrc; type: in vivo, mouse
Description: (§7) For Western blots, total protein lysates were prepared from the LV of 6 week-old WT control, ACE8/8 with and without 2 week treatment of mitochondria-targeted antioxidant (2-(2,2,6,6-Tetra-methylpiperidin-1-oxyl-4-ylamino)-2-oxoethyl)-triphenylphosphonium chloride (MitoTEMPO, see below), as well as from adult (2-4 month) Cav1−/− mice with and without 4 weeks treatment of cSrc inhibitor 1-(1,1-dimethylethyl)-[…]-1H-pyrazolo[3,4-d]pyrimidin-4-amine (PP1, see below).
(§8) In some cases, protein lysates were prepared from the LV cardiomyocytes isolated from ACE8/8 animals using described methods. 13 Total protein lysates were fractionated on 8-15% SDS-PAGE and transferred to PVDF membranes, incubated in 5% skim milk in PBS containing 0.1% Tween 20 (blocking buffer) for 1 h at room temperature, followed by overnight incubation at 4° C. with primary antibodies (rabbit monoclonal anti-cSrc, p-cSrc at Tyr416, Cx43, C-terminal Src kinase [CSK] and Tyr14 p-Cav1 antibodies from Cell Signaling, mouse monoclonal anti-Cav1 and Cav3 antibodies from BD Biosciences, rabbit monoclonal anti-eNOS, p-eNOS and nNOS antibodies from Santa Cruz).
(§9) For a loading control, the membranes were blotted with primary antibodies against glyceraldehydes-3-phosphate dehydrogenase (GAPDH) (Santa Cruz Biotech, Santa Cruz, Calif.). After washing, the membranes were incubated for 1 h at room temperature with alkaline phosphatase-conjugated secondary antibody diluted in blocking buffer, and bound antibodies were detected using a chemiluminescent alkaline phosphate substrate. Protein band intensities were quantified by densitometry (Quantity One Basic, Bio-Rad Laboratory, Hercules, Calif.) and the band densities of each protein in individual samples were normalized to that of GAPDH in the same sample.

Cx43 = assay: Western blot of LV protein lysates, Cx43; type: in vivo, mouse
Description: as §7, §8, §9

Cav1−/− mice [3] = assay: LV epicardial conduction velocity measurement (72-electrode Flex-MEA); type: in vivo, mouse
Description: LV conduction velocity was measured in anesthetized WT (n=6) and Cav1−/− (with and without 4 week PP1 treatment, n=6 in each group) mice using a flexible multielectrode array (Flex-MEA, 72 electrodes) system (Multichannel systems, Reutlingen, Germany) according to manufacturer's instructions.
Mid-anterior LV epicardial electrical propagation was recorded under right-ventricular pacing (750 bpm); the color mapping of LV conduction propagation, as well as the calculation of LV conduction velocity, were carried out using Cardio 2D software (Multichannel systems, Reutlingen, Germany)

Cav1−/− mice [4] = assay: Programmed ventricular stimulation, ventricular arrhythmia inducibility; type: in vivo, mouse; conditions: 4 weeks of PP1, n=6, untreated Cav1−/− 75% inducible
Description: Surface electrocardiograms (ECG) were recorded and ventricular arrhythmia inducibility was determined in WT and Cav1^−/− with and without 4 weeks of PP1 treatment (n=4-6 in each group) using described methods under general anesthesia with isofurane as described in Berul et al., In vivo cardiac electrophysiology studies in the mouse, Circulation 1996, 94:2641-2648.
Surface electrocardiograms (ECG) were monitored and recorded with needle electrodes connected to a dual bioamplifier (PowerLab 26T, AD Instruments, Dunedin, New Zealand) as described in Yang et al., Exercise training and PI3Kα-induced electrical remodeling is independent of cellular hypertrophy and Akt signaling, J Mol Cell Cardiol. 2012, 53:532-541.
Programmed ventricular stimulation was performed with a RV epicardial electrode connected to STG1008 stimulator (Multichannel systems, Reutlingen, Germany), where eight consecutive beats were paced at 60 ms basic cycle length, followed by triple extrastimuli with incrementally deceasing cycle lengths between 20-55 ms, and inducible ventricular tachycardia was defined as >3 consecutive ventricular beats. See, Bevilacqua et al., A targeted disruption in connexin40 leads to distinct atrioventricular conduction defects, J Interv Card Electrophysiol. 2000, 4:459-467.

[5] = ACE8/8 mice, MitoTEMPO 0.7 mg/kg/day i.p. for 2 weeks
[6] = ACE8/8 mice, MitoTEMPO 0.7 mg/kg/day i.p. for 2 weeks, n=6
[7] = Cav1−/− mice, PP1 1.5 mg/kg/dose i.p. 3 times per week for 4 weeks, n=6, 1.5 mg/kg

CC(=O)NC(C(=O)O)C(C)(C)SN=O (racemic) [SNAP, S-nitroso-N-acetyl-DL-penicillamine]
Cav1 SNO (S-nitrosation), C133S Cav1 (C133S Cav1): significantly increased | Cav1 SNO (S-nitrosation), WT Cav1 (WT mouse Cav1): significantly increased | Cav1 SNO (S-nitrosation), C143S Cav1 (C143S Cav1): significantly increased | interaction between cSrc and Cav1 (in words) (Cav1-cSrc binding [1]; HEK cells co-transfected with mouse cSrc and Cav1, SNAP 20 μM, n=4): reduced | decrease of Cav1-cSrc binding compared to control (Cav1-cSrc binding [1]; HEK cells transfected with mouse Cav1 and cSrc, SNAP 20 μM): 58% | Cav1 SNO (S-nitrosation), C156S Cav1 (C156S Cav1): not

CC1(C)CC(NC(=O)C[P+](c2ccccc2)(c2ccccc2)c2ccccc2)CC(C)(C)N1[O] [MitoTEMPO, (2-(2,2,6,6-Tetra-methylpiperidin-1-oxyl-4-ylamino)-2-oxoethyl)-triphenylphosphonium chloride]
Cav1-cSrc binding in ACE8/8 LV (in words) (Cav1-cSrc binding [2]): reversed; also recorded: restored | elevated mitoROS in ACE8/8 hearts (ACE8/8 mice; MitoTEMPO 0.7 mg/kg/day i.p. for 2 weeks, to levels similar to WT controls): normalizes | Cx43 expression in ACE8/8 mice (ACE8/8 mice; from Sovari et al. 2013): restores | gap junction conduction in ACE8/8 mice (ACE8/8 mice; from Sovari et al. 2013): normalizes | ventricular arrhythmias and sudden cardiac death in ACE8/8 mice (ACE8/8 mice; from Sovari et al. 2013): ameliorates | Cav1-eNOS interaction in ACE8/8 LV (in words) (Cav1-eNOS interaction): reversed; also recorded: significantly reduced | reduction of cardiac cSrc phosphorylation compared to untreated ACE8/8 animals (p-cSrc at Tyr416; [5]): 63% | cSrc activation/phosphorylation in ACE8/8 LV (in words) (p-cSrc at Tyr416; [6]): significantly attenuated | increase of Cx43 expression compared to untreated ACE8/8 animals (Cx43; [5]): 1.9 fold | Cx43 downregulation in ACE8/8 LV (in words) (Cx43; [6]): significantly attenuated

Cc1ccc(-c2nn(C(C)(C)C)c3ncnc(N)c23)cc1 [PP1, 1-(1,1-dimethylethyl)-1-(4-methylphenyl)-1H-pyrazolo[3,4-d]pyrimidin-4-amine]
LV conduction velocity in Cav1−/− LV (in words) (Cav1−/− mice [3]; 4 weeks of PP1 treatment): normalized | LV conduction velocity (Cav1−/− mice [3]; PP1 1.5 mg/kg/dose i.p. 3 times per week for 4 weeks, n=6, untreated Cav1−/− 0.35±0.03, WT 0.50±0.09): 0.43±0.01 mm/ms | LV p-cSrc expression / cSrc phosphorylation (in words) (p-cSrc at Tyr416; [7]): normalized; also recorded: prevented | inducible for ventricular arrhythmias / VT with programmed stimulation (Cav1−/− mice [4]): 0% | LV Cx43 expression / Cx43 downregulation (in words) (Cx43; [7]): normalized; also recorded: prevented
